Reference: patent publication US20020137929A1, “1 - (3-heterocyclylphenyl) isothiourea, -isourea, -guanidine and -amidine herbicidal agents” (Intellectual Property Department, BASF Aktiengesellschaft, priority 1998, published 2002)

Legend:
CASOB (Sicklepod) = experiment: Postemergence herbicidal evaluation; format: in vivo, Cassia obtusifolia; settings: postemergence
In short: (§1)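 ~2-wk seedlings; postemergence spray, 40 psi; vehicle 1:1 acetone:water + 0.5% Tween 20; rate ≈0.0156–0.500 kg/ha; greenhouse hold; scored 4–5 wk after treatment, 0–9 scale vs control; repeat tests averaged.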

GALAP (Galium) = experiment: Postemergence herbicidal evaluation; format: in vivo, Galium aparine; settings: postemergence
In short: as §1

MOOVA (Monochoria) = experiment: Preemergence weed control under flooded paddy conditions; format: in vivo, Monochoria vaginalis; settings: rated 3-4 weeks after treatment
In short: (§2)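 Ratings on a 0-9 visual scale cover stand, vigor, malformation, size, chlorosis and overall appearance relative to a control, taken three to four weeks post-treatment. Application was into flood water over freshly sown silt loam at roughly 0.0313 to 0.500 kg/ha.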

[1] = tested on: GLXMAW (Soybean, Williams); experiment: Preemergence herbicidal evaluation; format: in vivo, Glycine max, (L.) Merr. cv Williams; settings: rated 4-5 weeks after treatment
In short: (§3)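 Greenhouse preemergence test: seed-soil mix sown on ~1 inch soil; aqueous acetone spray at equivalent of ~0.0156–0.500 kg/ha; greenhouse-held and watered; scored 0–9 visually at 4–5 weeks.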

CYPIR (Rice Flatsedge) = experiment: Postemergence weed control under flooded paddy conditions; format: in vivo, Cyperus iria; settings: postemergence weeds, 3-4 weeks after treatment
In short: (§4)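 Weeds 3 to 5 cm tall and rice seedlings at the 1.5 to 2.5 leaf stage were flooded, with water held 1.5 to 3 cm above the soil. Compounds in 50/50 v/v aqueous/acetone went into the flood water at about 0.0313 to 0.500 kg/ha. Visual 0-9 ratings versus control were made 3 to 4 weeks later.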

ORYSAT (Rice, Tebonnet) [2] = experiment: Preemergence herbicidal evaluation; format: in vivo, Oryza sativa, (L.) Tebonnet; settings: rated 4-5 weeks after treatment
In short: as §3

AMBEL (Ragweed, Common) = experiment: Preemergence herbicidal evaluation; format: in vivo, Ambrosia artemisifolia; settings: rated 4-5 weeks after treatment
In short: as §3

CYPSE (Flatsedge) [3] = experiment: Postemergence weed control under flooded paddy conditions; format: in vivo, Cyperus serotinus; settings: postemergence weeds, 3-4 weeks after treatment
In short: as §4

SETVI (Foxtail, Green) = experiment: Preemergence herbicidal evaluation; format: in vivo, Setaria viridis; settings: rated 4-5 weeks after treatment
In short: as §3

ZEAMX (Corn, Field) = experiment: Postemergence herbicidal evaluation; format: in vivo, Zea mays; settings: postemergence
In short: as §1

[4] = tested on: SAGPY (Arrowhead (Pygmaea)); experiment: Postemergence weed control under flooded paddy conditions; format: in vivo, Sagittaria pygmaea; settings: postemergence weeds, 3-4 weeks after treatment
In short: as §4

[5] = tested on: CHEAL (Lambsquarters, Common); experiment: Postemergence herbicidal evaluation; format: in vivo, Chenopodium album; settings: postemergence
In short: as §1

CYPSE (Flatsedge) [6] = experiment: Preemergence weed control under flooded paddy conditions; format: in vivo, Cyperus serotinus; settings: rated 3-4 weeks after treatment
In short: as §2

ORYSAT (Rice, Tebonnet) [7] = experiment: Postemergence herbicidal evaluation; format: in vivo, Oryza sativa, (L.) Tebonnet; settings: postemergence
In short: as §1

Structure (SMILES): CCOC(=O)CN1C(=O)C(C)SC1=Nc1cc(-n2c(=O)cc(C(F)(F)F)n(C)c2=O)c(F)cc1Cl (stereo not drawn) [Compound 12]
- CASOB herbicidal rating (CASOB (Sicklepod); rate 0.0156 kg/ha): 0.0
- CASOB herbicidal rating (CASOB (Sicklepod); rate 0.0313 kg/ha): 3.0
- CASOB herbicidal rating (CASOB (Sicklepod); rate 0.0625 kg/ha): 7.0
- CASOB herbicidal rating (CASOB (Sicklepod); rate 0.1250 kg/ha): 9.0
- GALAP herbicidal rating (GALAP (Galium); rate 0.0156 kg/ha): 3.0
- GALAP herbicidal rating (GALAP (Galium); rate 0.0313 kg/ha): 5.0
- GALAP herbicidal rating (GALAP (Galium); rate 0.0625 kg/ha): 7.0
- GALAP herbicidal rating (GALAP (Galium); rate 0.1250 kg/ha): 8.0
- Herbicidal rating MOOVA (MOOVA (Monochoria); 0.0313 kg/ha): 9.0
- Herbicidal rating MOOVA (MOOVA (Monochoria); 0.0625 kg/ha): 9.0
- Herbicidal rating MOOVA (MOOVA (Monochoria); 0.1250 kg/ha): 9.0
- Herbicidal rating MOOVA (MOOVA (Monochoria); 0.2500 kg/ha): 9.0
- GLXMAW preemergence herbicidal rating ([1]; rate 0.0156 kg/ha): 1.5
- GLXMAW preemergence herbicidal rating ([1]; rate 0.0313 kg/ha): 2.0
- GLXMAW preemergence herbicidal rating ([1]; rate 0.0625 kg/ha): 3.5
- GLXMAW preemergence herbicidal rating ([1]; rate 0.1250 kg/ha): 6.5
- GLXMAW preemergence herbicidal rating ([1]; rate 0.2500 kg/ha): 9.0
- Herbicidal rating CYPIR (CYPIR (Rice Flatsedge); rate 0.0313 kg/ha): 0.0
- Herbicidal rating CYPIR (CYPIR (Rice Flatsedge); rate 0.0625 kg/ha): 0.0
- Herbicidal rating CYPIR (CYPIR (Rice Flatsedge); rate 0.1250 kg/ha): 1.0
- Herbicidal rating CYPIR (CYPIR (Rice Flatsedge); rate 0.2500 kg/ha): 0.0
- ORYSAT preemergence herbicidal rating (ORYSAT (Rice, Tebonnet) [2]; rate 0.0156 kg/ha): 0.0
- ORYSAT preemergence herbicidal rating (ORYSAT (Rice, Tebonnet) [2]; rate 0.0313 kg/ha): 1.0
- ORYSAT preemergence herbicidal rating (ORYSAT (Rice, Tebonnet) [2]; rate 0.0625 kg/ha): 4.0
- ORYSAT preemergence herbicidal rating (ORYSAT (Rice, Tebonnet) [2]; rate 0.1250 kg/ha): 7.0
- ORYSAT preemergence herbicidal rating (ORYSAT (Rice, Tebonnet) [2]; rate 0.2500 kg/ha): 7.0
- AMBEL preemergence herbicidal rating (AMBEL (Ragweed, Common); rate 0.0156 kg/ha): 0.0
- AMBEL preemergence herbicidal rating (AMBEL (Ragweed, Common); rate 0.0313 kg/ha): 4.5
- AMBEL preemergence herbicidal rating (AMBEL (Ragweed, Common); rate 0.0625 kg/ha): 9.0
- AMBEL preemergence herbicidal rating (AMBEL (Ragweed, Common); rate 0.1250 kg/ha): 9.0
- AMBEL preemergence herbicidal rating (AMBEL (Ragweed, Common); rate 0.2500 kg/ha): 9.0
- Herbicidal rating CYPSE (CYPSE (Flatsedge) [3]; rate 0.0313 kg/ha): 1.0
- Herbicidal rating CYPSE (CYPSE (Flatsedge) [3]; rate 0.0625 kg/ha): 3.0
- Herbicidal rating CYPSE (CYPSE (Flatsedge) [3]; rate 0.1250 kg/ha): 1.0
- Herbicidal rating CYPSE (CYPSE (Flatsedge) [3]; rate 0.2500 kg/ha): 6.0
- SETVI preemergence herbicidal rating (SETVI (Foxtail, Green); rate 0.0156 kg/ha): 8.5
- SETVI preemergence herbicidal rating (SETVI (Foxtail, Green); rate 0.0313 kg/ha): 9.0
- SETVI preemergence herbicidal rating (SETVI (Foxtail, Green); rate 0.0625 kg/ha): 9.0
- SETVI preemergence herbicidal rating (SETVI (Foxtail, Green); rate 0.1250 kg/ha): 9.0
- SETVI preemergence herbicidal rating (SETVI (Foxtail, Green); rate 0.2500 kg/ha): 9.0
- ZEAMX herbicidal rating (ZEAMX (Corn, Field); rate 0.0156 kg/ha): 6.5
- ZEAMX herbicidal rating (ZEAMX (Corn, Field); rate 0.0313 kg/ha): 7.0
- ZEAMX herbicidal rating (ZEAMX (Corn, Field); rate 0.0625 kg/ha): 7.5
- ZEAMX herbicidal rating (ZEAMX (Corn, Field); rate 0.1250 kg/ha): 8.0
- Herbicidal rating SAGPY ([4]; rate 0.0313 kg/ha): 0.0
- Herbicidal rating SAGPY ([4]; rate 0.0625 kg/ha): 1.0
- Herbicidal rating SAGPY ([4]; rate 0.1250 kg/ha): 4.0
- Herbicidal rating SAGPY ([4]; rate 0.2500 kg/ha): 0.0
- CHEAL herbicidal rating ([5]; rate 0.0156 kg/ha): 9.0
- CHEAL herbicidal rating ([5]; rate 0.0313 kg/ha): 9.0
- CHEAL herbicidal rating ([5]; rate 0.0625 kg/ha): 9.0
- CHEAL herbicidal rating ([5]; rate 0.1250 kg/ha): 9.0
- Herbicidal rating CYPSE (CYPSE (Flatsedge) [6]; 0.0313 kg/ha): 1.0
- Herbicidal rating CYPSE (CYPSE (Flatsedge) [6]; 0.0625 kg/ha): 3.0
- Herbicidal rating CYPSE (CYPSE (Flatsedge) [6]; 0.1250 kg/ha): 1.0
- Herbicidal rating CYPSE (CYPSE (Flatsedge) [6]; 0.2500 kg/ha): 6.0
- ORYSAT herbicidal rating (ORYSAT (Rice, Tebonnet) [7]; rate 0.0156 kg/ha): 2.5
- ORYSAT herbicidal rating (ORYSAT (Rice, Tebonnet) [7]; rate 0.0313 kg/ha): 3.0
- ORYSAT herbicidal rating (ORYSAT (Rice, Tebonnet) [7]; rate 0.0625 kg/ha): 3.0
- ORYSAT herbicidal rating (ORYSAT (Rice, Tebonnet) [7]; rate 0.1250 kg/ha): 5.0
